Source: patent publication US20240307430A1, “PHARMACEUTICAL COMPOSITION CONTAINING NICOTINAMIDE ADENINE DINUCLEOTIDE (NAD) AND CD38 INHIBITOR AND APPLICATION THEREOF” (HEFEI KNATURE BIO-PHARM CO., LTD., priority 2021, published 2024)

Tests used:
[1] = test system: Doxorubicin-induced cardiotoxicity (DIC) model; experiment: Echocardiography of cardiac function (EF, FS) in the DIC model; type: in vivo, C57BL/6 male mice
Description: (§1) Circulation. 2016; 133:1668-1687”. 8-week-old C57BL/6 male mice were injected with 5 mg/kg of doxorubicin (DOX) or normal saline via the tail vein, and the administration was performed once a week for four consecutive weeks. Four weeks after the last administration, the mice were subjected to echocardiography to detect the cardiac function, and myocardial tissues of the mice were taken to detect the NAD^+ content. Mice were intraperitoneally injected with the same volume of saline as that of the experimental group once a day, and the duration cycle was the same as that of the DIC model. After administration, mice were subjected to echocardiography to detect the cardiac function, and myocardial tissues were taken from mice to detect NAD^+ content. CD38 inhibitor 78c was dissolved with DMSO. Mice were injected intraperitoneally with 10 mg/kg CD38 inhibitor 78c at 3 hours before doxorubicin injection in the DIC model. 78c was administered once a day until the endpoint of the DIC model. At the end of the model, echocardiography was performed on the mice to detect the cardiac function of the mice, and myocardial tissues were taken from the mice to detect NAD^+ content. NAD was dissolved in saline. Mice were injected intraperitoneally with 50 mg/kg NAD at 3 hours before doxorubicin injection in the DIC model. NAD was administered once a day, which lasted until the endpoint of the DIC model. At the end of the model, mice were subjected to echocardiography to detect cardiac function, and myocardial tissues were taken from mice to detect NAD^+ content. CD38 inhibitor 78c was dissolved in DMSO. Mice were injected intraperitoneally with 50 mg/kg NAD and 10 mg/kg CD38 inhibitor 78c at 3 hours before doxorubicin injection in the DIC model. The CD38 inhibitor 78c was administered once a day, which lasted until the endpoint of the DIC model. At the end of the model, mice were subjected to echocardiography to detect cardiac function, and myocardial tissues were taken from mice to detect NAD^+ content.

CD38 [2] = target: T1, CD38 (Homo sapiens, UniProt P28907); conditions: from the literature, Cell Metabolism 2018; cited from earlier work
T1 sequence (P28907 1-300): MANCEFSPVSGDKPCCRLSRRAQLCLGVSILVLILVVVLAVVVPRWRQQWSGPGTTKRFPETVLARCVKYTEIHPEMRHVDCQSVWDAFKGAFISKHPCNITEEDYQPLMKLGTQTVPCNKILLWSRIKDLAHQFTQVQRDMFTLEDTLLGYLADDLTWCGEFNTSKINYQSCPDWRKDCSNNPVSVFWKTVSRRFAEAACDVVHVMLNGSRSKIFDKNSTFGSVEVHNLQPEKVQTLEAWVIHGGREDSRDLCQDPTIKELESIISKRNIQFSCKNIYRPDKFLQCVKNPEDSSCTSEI

[3] = test system: Doxorubicin-induced cardiotoxicity (DIC) model; experiment: NAD+ content of cardiac tissues in the doxorubicin-induced cardiotoxicity (DIC) model; type: in vivo, C57BL/6 male mice; conditions: FIG. 2
Description: as §1, with “At the end of the model, mice were subjected to echocardiography to detect cardiac function, and myocardial tissues were taken from mice to detect NAD^+ content. CD38 inhibitor 78c was dissolved in DMSO. Mice were injected intraperitoneally with 50 mg/kg NAD and 10 mg/kg CD38 inhibitor 78c at 3 hours before doxorubicin injection in the DIC model. The CD38 inhibitor 78c was administered once a day, which lasted until the endpoint of the DIC model. At the end of the model, mice were subjected to echocardiography to detect cardiac function, and myocardial tissues were taken from mice to detect NAD^+ content.” left out

CD38 [4] = experiment: CD38 expression in mouse heart tissues after doxorubicin treatment; type: in vivo, mice; conditions: after doxorubicin treatment (5 mg/kg via tail vein, once a week for four weeks); mainly in CD31-positive endothelial cell region; FIG. 1
Description: 8-week-old C57BL/6 male mice were injected with 5 mg/kg of doxorubicin (DOX) or normal saline via the tail vein, and the administration was performed once a week for four consecutive weeks. Four weeks after the last administration, the mice were subjected to echocardiography to detect the cardiac function, and myocardial tissues of the mice were taken to detect the NAD^+ content.

Compound	cardiac function (EF, FS) ([1]; DOX-treated mice, i.p. once a day from 3 hours before doxorubicin, NAD 50 mg/kg, 78c 10 mg/kg, FIGS. 3a and 3b)	inhibitory activity against CD38 (CD38 [2])	cardiac NAD+ content ([3]; DOX-treated mice, i.p. once a day from 3 hours before doxorubicin, NAD 50 mg/kg, 78c 10 mg/kg)	ejection fraction (EF) of the mouse heart ([1]; doxorubicin 5 mg/kg via tail vein once a week for four weeks, echocardiography, FIG. 3a)	fractional shortening (FS) of the mouse heart ([1]; doxorubicin 5 mg/kg via tail vein once a week for four weeks, echocardiography, FIG. 3b)	CD38 expression in mouse heart tissues (CD38 [4])	NAD+ content of the cardiac tissues ([3]; doxorubicin 5 mg/kg via tail vein once a week for four weeks, compared with the control group)
COCCOC1CCC(Nc2cc(=O)n(C)c3ccc(-c4cncs4)cc23)CC1 (stereo not shown) [compound 78c]	improved cardiac function	has been demonstrated	modestly increased				
COc1cccc2c1C(=O)c1c(O)c3c(c(O)c1C2=O)C[C@@](O)(C(=O)CO)C[C@@H]3O[C@H]1C[C@H](N)[C@H](O)[C@H](C)O1 [doxorubicin]				significantly reduced	significantly reduced	significantly increased	significant decrease
